What was measured:
Type in all cases: functional, cell-based
J82 = test: cells; conditions: Homo sapiens;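 also: growth inhibition of J82 cells, read out with a cell viability assay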
Description: SANGER: Inhibition of human J82 cell growth in a cell viability assay.

HGC-27 = test: cells; conditions: Homo sapiens;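 also: growth inhibition of human HGC-27 cells, read out in a cell viability assay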
Description: SANGER: Inhibition of human HGC-27 cell growth in a cell viability assay.

BHY = test: cells; conditions: Homo sapiens;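 also: cell growth inhibition read out by a viability assay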
Description: SANGER: Inhibition of human BHY cell growth in a cell viability assay.

RMG-I = test: cells; conditions: Homo sapiens;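 also: growth inhibition of human RMG-I cells, read out with a cell viability assay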
Description: SANGER: Inhibition of human RMG-I cell growth in a cell viability assay.

PC-3 = test: cells; conditions: Homo sapiens;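 also: cell viability assay measuring growth inhibition of PC-3 cells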
Description: SANGER: Inhibition of human PC-3 cell growth in a cell viability assay.

NCI-H727 = test: cells; conditions: Homo sapiens;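 also: growth inhibition of human NCI-H727 cells, read out with a cell viability assay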
Description: SANGER: Inhibition of human NCI-H727 cell growth in a cell viability assay.

LCLC-97TM1 = test: cells; conditions: Homo sapiens;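 also: cell viability assay measuring growth inhibition of human LCLC-97TM1 cells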
Description: SANGER: Inhibition of human LCLC-97TM1 cell growth in a cell viability assay.

SW1463 = test: cells; conditions: Homo sapiens;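 also: growth inhibition of SW1463 cells, determined with a cell viability assay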
Description: SANGER: Inhibition of human SW1463 cell growth in a cell viability assay.

NCI-H1693 = test: cells; conditions: Homo sapiens;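 also: growth inhibition of the human cell line, read out with a cell viability assay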
Description: SANGER: Inhibition of human NCI-H1693 cell growth in a cell viability assay.

COLO-680N = test: cells; conditions: Homo sapiens;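 also: cell viability assay used to measure inhibition of COLO-680N cell growth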
Description: SANGER: Inhibition of human COLO-680N cell growth in a cell viability assay.

MDA-MB-231 = test: cells; conditions: Homo sapiens
Description: SANGER: Inhibition of human MDA-MB-231 cell growth in a cell viability assay.

HCC1806 = test: cells; conditions: Homo sapiens;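 also: growth inhibition of the cancer cell line, determined with a cell viability assay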
Description: SANGER: Inhibition of human HCC1806 cell growth in a cell viability assay.

NCI-H2452 = test: cells; conditions: Homo sapiens;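 also: growth inhibition of NCI-H2452 cells, read out with a cell viability assay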
Description: SANGER: Inhibition of human NCI-H2452 cell growth in a cell viability assay.

ASPC1 = test: cells; conditions: Homo sapiens;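 also: growth inhibition of AsPC-1 cells, read out with a cell viability assay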
Description: SANGER: Inhibition of human AsPC-1 cell growth in a cell viability assay.

HO-1-N-1 = test: cells; conditions: Homo sapiens;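 also: growth inhibition of human HO-1-N-1 cells, read out with a cell viability assay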
Description: SANGER: Inhibition of human HO-1-N-1 cell growth in a cell viability assay.

Calu-3 = test: cells; conditions: Homo sapiens;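 also: growth inhibition of human Calu-3 cells, determined with a cell viability assay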
Description: SANGER: Inhibition of human Calu-3 cell growth in a cell viability assay.

ECC4 = test: cells; conditions: Homo sapiens;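 also: growth inhibition of ECC4 cells, read out with a cell viability assay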
Description: SANGER: Inhibition of human ECC4 cell growth in a cell viability assay.

NB12 = test: cells; conditions: Homo sapiens;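 also: growth inhibition of human NB12 cells, read out by a cell viability assay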
Description: SANGER: Inhibition of human NB12 cell growth in a cell viability assay.

Daudi = test: cells; conditions: Homo sapiens;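 also: growth inhibition of Daudi cells, read out by a viability assay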
Description: SANGER: Inhibition of human Daudi cell growth in a cell viability assay.

SNU-16 = test: cells; conditions: Homo sapiens;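 also: growth inhibition of human SNU-16 cells, determined with a cell viability readout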
Description: SANGER: Inhibition of human NCI-SNU-16 cell growth in a cell viability assay.

KU-19-19 = test: cells; conditions: Homo sapiens
Description: SANGER: Inhibition of human KU-19-19 cell growth in a cell viability assay.

NCI-H2141 = test: cells; conditions: Homo sapiens;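 also: growth inhibition of human NCI-H2141 cells, read out with a cell viability assay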
Description: SANGER: Inhibition of human NCI-H2141 cell growth in a cell viability assay.

COLO-679 = test: cells; conditions: Homo sapiens
Description: SANGER: Inhibition of human COLO-679 cell growth in a cell viability assay.

AN3-CA = test: cells; conditions: Homo sapiens;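 also: growth inhibition of human AN3-CA cells measured by a cell viability assay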
Description: SANGER: Inhibition of human AN3-CA cell growth in a cell viability assay.

CESS = test: SANGER: Inhibition of human CESS cell growth in a cell viability assay.
RO82-W-1 = test: cells; conditions: Homo sapiens;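 also: growth inhibition of human RO82-W-1 cells, measured with a cell viability assay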
Description: SANGER: Inhibition of human RO82-W-1 cell growth in a cell viability assay.

MKN-7 = test: cells; conditions: Homo sapiens;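 also: growth inhibition of MKN-7 cells, read out with a cell viability assay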
Description: SANGER: Inhibition of human MKN7 cell growth in a cell viability assay.

YAPC = test: cells; conditions: Homo sapiens;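 also: growth inhibition of YAPC cells, measured with a cell viability assay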
Description: SANGER: Inhibition of human YAPC cell growth in a cell viability assay.

SK-MES-1 = test: cells; conditions: Homo sapiens;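 also: growth inhibition of human SK-MES-1 cells, read out with a cell viability assay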
Description: SANGER: Inhibition of human SK-MES-1 cell growth in a cell viability assay.

CAL-148 = test: cells; conditions: Homo sapiens
Description: SANGER: Inhibition of human CAL-148 cell growth in a cell viability assay.

KYSE-150 cell line = test: cells; conditions: Homo sapiens;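 also: growth inhibition of human KYSE-150 cells, read out with a cell viability assay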
Description: SANGER: Inhibition of human KYSE-150 cell growth in a cell viability assay.

HCC1937 = test: cells; conditions: Homo sapiens;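 also: growth inhibition measured with a cell viability read-out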
Description: SANGER: Inhibition of human HCC1937 cell growth in a cell viability assay.

DMS-153 = test: cells; conditions: Homo sapiens
Description: SANGER: Inhibition of human DMS-153 cell growth in a cell viability assay.

A204 = test: cells; conditions: Homo sapiens;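 also: growth inhibition of human A204 cells, read out with a cell viability assay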
Description: SANGER: Inhibition of human A204 cell growth in a cell viability assay.

NCI-H520 = test: cells; conditions: Homo sapiens;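 also: growth inhibition of NCI-H520 cells, measured by a cell viability assay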
Description: SANGER: Inhibition of human NCI-H520 cell growth in a cell viability assay.

NCI-H716 = test: cells; conditions: Homo sapiens;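 also: growth inhibition of human NCI-H716 cells, measured by a cell viability assay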
Description: SANGER: Inhibition of human NCI-H716 cell growth in a cell viability assay.

SK-MM-2 = test: cells; conditions: Homo sapiens;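 also: growth inhibition of human SK-MM-2 cells, read out with a cell viability assay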
Description: SANGER: Inhibition of human SK-MM-2 cell growth in a cell viability assay.

G-361 = test: cells; conditions: Homo sapiens
GAMG = test: cells; conditions: Homo sapiens;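 also: cell growth inhibition measured by a viability assay in the GAMG human cell line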
Description: SANGER: Inhibition of human GAMG cell growth in a cell viability assay.

NCI-H345 = test: cells; conditions: Homo sapiens;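 also: growth inhibition of NCI-H345 cells measured with a cell viability assay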
Description: SANGER: Inhibition of human NCI-H345 cell growth in a cell viability assay.

UACC-62 = test: cells; conditions: Homo sapiens;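 also: growth inhibition of human UACC-62 cells, read out by a cell viability assay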
Description: SANGER: Inhibition of human UACC-62 cell growth in a cell viability assay.

KYSE-510 = test: cells; conditions: Homo sapiens;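 also: cell viability readout used to measure how strongly growth of the cell line is suppressed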
Description: SANGER: Inhibition of human KYSE-510 cell growth in a cell viability assay.

NCI-H1437 = test: cells; conditions: Homo sapiens;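 also: growth inhibition of human NCI-H1437 cells, read out by a cell viability assay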
Description: SANGER: Inhibition of human NCI-H1437 cell growth in a cell viability assay.

RPMI 8402 = test: SANGER: Inhibition of human RPMI-8402 cell growth in a cell viability assay.
SW13 = test: cells; conditions: Homo sapiens;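 also: IC50 is inhibition of SW13 cell growth, read out with a cell viability assay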
Description: SANGER: Inhibition of human SW13 cell growth in a cell viability assay.

CAL-51 = test: cells; conditions: Homo sapiens;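 also: human CAL-51 cell line, growth inhibition read out via a cell viability assay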
Description: SANGER: Inhibition of human CAL-51 cell growth in a cell viability assay.

LP-1 = test: cells; conditions: Homo sapiens;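 also: growth inhibition of human LP-1 cells, with the read-out taken from a cell viability assay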
Description: SANGER: Inhibition of human LP-1 cell growth in a cell viability assay.

NCI-H1623 = test: cells; conditions: Homo sapiens;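 also: cell viability assay used as the read-out for growth inhibition of NCI-H1623 cells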
Description: SANGER: Inhibition of human NCI-H1623 cell growth in a cell viability assay.

NCI-H2081 = test: cells; conditions: Homo sapiens;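 also: growth inhibition of human NCI-H2081 cells, read out with a cell viability assay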
Description: SANGER: Inhibition of human NCI-H2081 cell growth in a cell viability assay.

RVH-421 = test: cells; conditions: Homo sapiens
Description: SANGER: Inhibition of human RVH-421 cell growth in a cell viability assay.

T47D = test: cells; conditions: Homo sapiens;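 also: growth inhibition of human T47D cells, measured with a cell viability assay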
Description: SANGER: Inhibition of human T47D cell growth in a cell viability assay.

RCM-1 = test: cells; conditions: Homo sapiens;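 also: growth inhibition of the RCM-1 line, determined with a cell viability readout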
Description: SANGER: Inhibition of human RCM-1 cell growth in a cell viability assay.

H4 = test: cells; conditions: Homo sapiens
Description: SANGER: Inhibition of human H4 cell growth in a cell viability assay.

LN-405 = test: cells; conditions: Homo sapiens
Description: SANGER: Inhibition of human LN-405 cell growth in a cell viability assay.

COLO-741 = test: cells; conditions: Homo sapiens
Description: SANGER: Inhibition of human COLO-741 cell growth in a cell viability assay.

NY = test: cells; conditions: Homo sapiens
Description: SANGER: Inhibition of human NY cell growth in a cell viability assay.

OE33 = test: cells; conditions: Homo sapiens;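 also: growth inhibition of human OE33 cells, measured by a cell viability assay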
Description: SANGER: Inhibition of human OE33 cell growth in a cell viability assay.

CPC-N = test: cells; conditions: Homo sapiens;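 also: growth inhibition of CPC-N cells, with a cell viability assay as the readout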
Description: SANGER: Inhibition of human CPC-N cell growth in a cell viability assay.

SK-OV-3 = test: cells; conditions: Homo sapiens;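 also: growth inhibition of SK-OV-3 human cells, read out with a cell viability assay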
Description: SANGER: Inhibition of human SK-OV-3 cell growth in a cell viability assay.

CAL-120 = test: cells; conditions: Homo sapiens;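 also: cell growth inhibition, read out as cell viability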
Description: SANGER: Inhibition of human CAL-120 cell growth in a cell viability assay.

PC-14 = test: cells; conditions: Homo sapiens;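 also: cell viability assay measuring inhibition of PC-14 cell growth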
Description: SANGER: Inhibition of human PC-14 cell growth in a cell viability assay.

MDA-MB-134-VI = test: cells; conditions: Homo sapiens
Description: SANGER: Inhibition of human MDA-MB-134-VI cell growth in a cell viability assay.

MDA-MB-453 = test: cells; conditions: Homo sapiens
Description: SANGER: Inhibition of human MDA-MB-453 cell growth in a cell viability assay.

NCI-H661 = test: cells; conditions: Homo sapiens;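 also: cell viability assay read-out, IC50 being the concentration that inhibits growth of the cells by half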
Description: SANGER: Inhibition of human NCI-H661 cell growth in a cell viability assay.

NCI-H292 = test: cells; conditions: Homo sapiens
Description: SANGER: Inhibition of human NCI-H292 cell growth in a cell viability assay.

Q: CCNC(=O)c1noc(-c2cc(C(C)C)c(O)cc2O)c1-c1ccc(CN2CCOCC2)cc1 [LUMINESPIB] was tested. Which IC50 (J82) did it give?
A: 30.1 nM

Q: What about the IC50 (HGC-27) of the same molecule?
A: 17.6 nM

Q: What about the IC50 (BHY) of the same molecule?
A: 19.1 nM

Q: And the IC50 (RMG-I)?
A: > 256 nM

Q: What about the IC50 (PC-3) of the same molecule?
A: 132 nM

Q: And the IC50 (NCI-H727)?
A: 10.3 nM

Q: What about the IC50 (LCLC-97TM1) of the same molecule?
A: 13 nM

Q: What about the IC50 (SW1463) of the same molecule?
A: > 256 nM

Q: What about the IC50 (NCI-H1693) of the same molecule?
A: 36.2 nM

Q: What about the IC50 (COLO-680N) of the same molecule?
A: 44.1 nM

Q: And the IC50 (MDA-MB-231)?
A: 90.8 nM

Q: What about the IC50 (HCC1806) of the same molecule?
A: 111 nM

Q: What about the IC50 (NCI-H2452) of the same molecule?
A: > 256 nM

Q: What about the IC50 (ASPC1) of the same molecule?
A: > 256 nM

Q: What about the IC50 (HO-1-N-1) of the same molecule?
A: 25.5 nM

Q: And the IC50 (Calu-3)?
A: 37.9 nM

Q: What about the IC50 (ECC4) of the same molecule?
A: 199 nM

Q: What about the IC50 (NB12) of the same molecule?
A: 95.2 nM

Q: What about the IC50 (Daudi) of the same molecule?
A: 33.8 nM

Q: What about the IC50 (SNU-16) of the same molecule?
A: > 256 nM

Q: What about the IC50 (KU-19-19) of the same molecule?
A: 108 nM

Q: And the IC50 (NCI-H2141)?
A: 238 nM

Q: What about the IC50 (COLO-679) of the same molecule?
A: 31.1 nM

Q: What about the IC50 (AN3-CA) of the same molecule?
A: 10.2 nM

Q: What about the IC50 (CESS) of the same molecule?
A: 31.2 nM

Q: What about the IC50 (RO82-W-1) of the same molecule?
A: > 256 nM

Q: What about the IC50 (MKN-7) of the same molecule?
A: > 256 nM

Q: And the IC50 (YAPC)?
A: > 256 nM

Q: What about the IC50 (SK-MES-1) of the same molecule?
A: 9.45 nM

Q: And the IC50 (CAL-148)?
A: 243 nM

Q: What about the IC50 (KYSE-150 cell line) of the same molecule?
A: 36.1 nM

Q: What about the IC50 (HCC1937) of the same molecule?
A: 44.6 nM

Q: And the IC50 (DMS-153)?
A: 77.3 nM

Q: What about the IC50 (A204) of the same molecule?
A: 21.2 nM

Q: What about the IC50 (NCI-H520) of the same molecule?
A: 26.6 nM

Q: And the IC50 (NCI-H716)?
A: > 256 nM

Q: And the IC50 (SK-MM-2)?
A: 111 nM

Q: And the IC50 (G-361)?
A: 26.8 nM

Q: And the IC50 (GAMG)?
A: 13.7 nM

Q: And the IC50 (NCI-H345)?
A: > 256 nM

Q: And the IC50 (UACC-62)?
A: 121 nM

Q: And the IC50 (KYSE-510)?
A: 14.4 nM

Q: And the IC50 (NCI-H1437)?
A: 63.3 nM

Q: What about the IC50 (RPMI 8402) of the same molecule?
A: > 256 nM

Q: What about the IC50 (SW13) of the same molecule?
A: 45.9 nM

Q: And the IC50 (CAL-51)?
A: 3.25 nM

Q: What about the IC50 (LP-1) of the same molecule?
A: > 256 nM

Q: And the IC50 (NCI-H1623)?
A: > 256 nM

Q: What about the IC50 (NCI-H2081) of the same molecule?
A: 152 nM

Q: And the IC50 (RVH-421)?
A: 19.6 nM

Q: What about the IC50 (T47D) of the same molecule?
A: > 256 nM

Q: And the IC50 (RCM-1)?
A: 157 nM

Q: What about the IC50 (H4) of the same molecule?
A: 13.7 nM

Q: What about the IC50 (LN-405) of the same molecule?
A: > 256 nM

Q: And the IC50 (COLO-741)?
A: 55.3 nM

Q: And the IC50 (NY)?
A: 17.4 nM

Q: What about the IC50 (OE33) of the same molecule?
A: 42.4 nM

Q: What about the IC50 (CPC-N) of the same molecule?
A: > 256 nM

Q: And the IC50 (SK-OV-3)?
A: 6.3 nM

Q: What about the IC50 (CAL-120) of the same molecule?
A: 42.4 nM

Q: And the IC50 (PC-14)?
A: 19.3 nM

Q: What about the IC50 (MDA-MB-134-VI) of the same molecule?
A: 174 nM

Q: And the IC50 (MDA-MB-453)?
A: > 256 nM

Q: And the IC50 (NCI-H661)?
A: 112 nM

Q: What about the IC50 (NCI-H292) of the same molecule?
A: 17.1 nM

Q: For CC(O)(CS(=O)(=O)c1ccc(F)cc1)C(=O)Nc1ccc(C#N)c(C(F)(F)F)c1 (stereo not given) [BICALUTAMIDE], which IC50 (J82) is on record?
A: > 1020 nM

Q: What about the IC50 (HGC-27) of the same molecule?
A: > 1020 nM

Q: And the IC50 (BHY)?
A: > 1020 nM

Q: And the IC50 (RMG-I)?
A: > 1020 nM

Q: What about the IC50 (PC-3) of the same molecule?
A: > 1020 nM

Q: And the IC50 (NCI-H727)?
A: > 1020 nM

Q: And the IC50 (LCLC-97TM1)?
A: > 1020 nM

Q: What about the IC50 (SW1463) of the same molecule?
A: > 1020 nM

Q: And the IC50 (NCI-H1693)?
A: > 1020 nM

Q: And the IC50 (COLO-680N)?
A: > 1020 nM

Q: And the IC50 (MDA-MB-231)?
A: > 1020 nM

Q: What about the IC50 (HCC1806) of the same molecule?
A: > 1020 nM

Q: What about the IC50 (NCI-H2452) of the same molecule?
A: > 1020 nM

Q: And the IC50 (ASPC1)?
A: > 1020 nM

Q: What about the IC50 (HO-1-N-1) of the same molecule?
A: > 1020 nM

Q: What about the IC50 (Calu-3) of the same molecule?
A: > 1020 nM

Q: And the IC50 (ECC4)?
A: > 1020 nM

Q: What about the IC50 (NB12) of the same molecule?
A: > 1020 nM

Q: And the IC50 (Daudi)?
A: > 1020 nM

Q: And the IC50 (SNU-16)?
A: > 1020 nM

Q: What about the IC50 (KU-19-19) of the same molecule?
A: > 1020 nM

Q: And the IC50 (NCI-H2141)?
A: > 1020 nM

Q: And the IC50 (COLO-679)?
A: > 1020 nM

Q: What about the IC50 (AN3-CA) of the same molecule?
A: > 1020 nM

Q: And the IC50 (CESS)?
A: > 1020 nM

Q: And the IC50 (RO82-W-1)?
A: > 1020 nM

Q: What about the IC50 (MKN-7) of the same molecule?
A: > 1020 nM

Q: And the IC50 (YAPC)?
A: > 1020 nM

Q: And the IC50 (SK-MES-1)?
A: > 1020 nM

Q: And the IC50 (CAL-148)?
A: > 1020 nM

Q: What about the IC50 (KYSE-150 cell line) of the same molecule?
A: > 1020 nM

Q: What about the IC50 (HCC1937) of the same molecule?
A: > 1020 nM

Q: What about the IC50 (DMS-153) of the same molecule?
A: > 1020 nM

Q: And the IC50 (A204)?
A: > 1020 nM

Q: What about the IC50 (NCI-H520) of the same molecule?
A: > 1020 nM

Q: What about the IC50 (NCI-H716) of the same molecule?
A: > 1020 nM

Q: What about the IC50 (SK-MM-2) of the same molecule?
A: > 1020 nM

Q: And the IC50 (G-361)?
A: > 1020 nM

Q: And the IC50 (GAMG)?
A: > 1020 nM

Q: What about the IC50 (NCI-H345) of the same molecule?
A: > 1020 nM

Q: And the IC50 (UACC-62)?
A: > 1020 nM

Q: And the IC50 (KYSE-510)?
A: > 1020 nM

Q: What about the IC50 (NCI-H1437) of the same molecule?
A: > 1020 nM

Q: What about the IC50 (RPMI 8402) of the same molecule?
A: > 1020 nM

Q: What about the IC50 (SW13) of the same molecule?
A: > 1020 nM

Q: What about the IC50 (CAL-51) of the same molecule?
A: > 1020 nM

Q: And the IC50 (LP-1)?
A: > 1020 nM

Q: What about the IC50 (NCI-H1623) of the same molecule?
A: > 1020 nM

Q: And the IC50 (NCI-H2081)?
A: > 1020 nM

Q: What about the IC50 (RVH-421) of the same molecule?
A: > 1020 nM

Q: What about the IC50 (T47D) of the same molecule?
A: > 1020 nM

Q: And the IC50 (RCM-1)?
A: > 1020 nM

Q: And the IC50 (H4)?
A: > 1020 nM

Q: And the IC50 (LN-405)?
A: > 1020 nM

Q: What about the IC50 (COLO-741) of the same molecule?
A: > 1020 nM

Q: What about the IC50 (NY) of the same molecule?
A: > 1020 nM

Q: And the IC50 (OE33)?
A: > 1020 nM

Q: What about the IC50 (CPC-N) of the same molecule?
A: > 1020 nM

Q: What about the IC50 (SK-OV-3) of the same molecule?
A: > 1020 nM

Q: And the IC50 (CAL-120)?
A: > 1020 nM

Q: And the IC50 (PC-14)?
A: > 1020 nM

Q: What about the IC50 (MDA-MB-134-VI) of the same molecule?
A: > 1020 nM

Q: What about the IC50 (MDA-MB-453) of the same molecule?
A: > 1020 nM

Q: What about the IC50 (NCI-H661) of the same molecule?
A: > 1020 nM

Q: What about the IC50 (NCI-H292) of the same molecule?
A: > 1020 nM

Source: ChEMBL document CHEMBL1201861, “Genomics of Drug Sensitity in Cancer screening data, Wellcome Trust Sanger Institute”
